Literature values in US20220265666A1, “METHODS OF TREATING SUBSTANCE ABUSE DISORDER, DYSPNEA, TINNITUS, AND CHILD AND ADOLESCENT DEPRESSION” (Praxis Precision Medicines, Inc., priority 2019, published 2022).
Read-outs that look alike come from different tables or passages of the source.

Tests used:
symptoms of tinnitus = conditions: clinical studies
[1] = system: patients with well controlled asthma
tinnitus behavior = conditions: non-clinical models of tinnitus
craving to cocaine = conditions: clinical studies
[2] = second day, same patients, previous inhalation with diazepam
[3] = first day of testing, methacholine inhalation 6 mg/mL, no diazepam, 12 patients

Structure (SMILES): O=C1CN=C(c2ccccc2Cl)c2cc([N+](=O)[O-])ccc2N1 [clonazepam]
- effect on symptoms of tinnitus (symptoms of tinnitus): control some symptoms of tinnitus

Structure (SMILES): CN1C(=O)CN=C(c2ccccc2)c2cc(Cl)ccc21 [diazepam]
- effect on bronchoconstriction induced by methacholine ([1]; diazepam aerosol, 12 patients with well controlled asthma): reduced the bronchoconstriction induced by methacholine
- FEV1 after methacholine inhalation [1, 2]: 2.21 L
- FEV1 before methacholine inhalation [1, 2]: 2.48 L

Structure (SMILES): CNC1(c2ccccc2Cl)CCCCC1=O (stereo not drawn) [ketamine]
- effect on tinnitus behavior (tinnitus behavior): not those that reduce excitation (i.e., ketamine) reverse the tinnitus behavior

Structure (SMILES): CC(=O)OC(C)C[N+](C)(C)C (stereo not drawn) [methacholine]
- FEV1 after methacholine inhalation [1, 3]: 1.69 L
- FEV1 before methacholine inhalation [1, 3]: 2.98 L

Structure (SMILES): C=CC(N)CCC(=O)O (stereo not drawn) [vigabatrin]
- effect on tinnitus behavior (tinnitus behavior): reverse the tinnitus behavior

Structure (SMILES): CC(=O)[C@H]1CC[C@H]2[C@@H]3CCC4=CC(=O)CC[C@]4(C)[C@H]3CC[C@]12C [Progesterone]
- effect on craving to cocaine (craving to cocaine): decrease craving to cocaine
